# Tests used:
# [1] = system: CCRF-CEM; experiment: Antiproliferative activity against human CCRF-CEM cells measured after 48 hrs by SRB assay; assay type: functional, cell-based; details: for IC50: 48 h; for TGI: time 48 hrs
# [2] = system: RPMI-8226; experiment: Antiproliferative activity against human RPMI-8226 cells measured after 48 hrs by SRB assay; assay type: functional, cell-based; details: for IC50: RPMI-8226, 48 h; for TGI: RPMI-8226, time 48 hrs
# [3] = system: HOP-92; experiment: Antiproliferative activity against human HOP-92 cells measured after 48 hrs by SRB assay; assay type: functional, cell-based; details: for IC50: HOP-92, 48 h; for TGI: HOP-92, time 48 hrs
# [4] = system: NCI-H226; experiment: Antiproliferative activity against human NCI-H226 cells measured after 48 hrs by SRB assay; assay type: functional, cell-based; details: for IC50: NCI-H226, 48 h; for TGI: NCI-H226, time 48 hrs
# [5] = system: NCI-H460; experiment: Antiproliferative activity against human NCI-H460 cells measured after 48 hrs by SRB assay; assay type: functional, cell-based; details: for IC50: NCI-H460, 48 h; for TGI: NCI-H460, time 48 hrs
# [6] = system: NCI-H522; experiment: Antiproliferative activity against human NCI-H522 cells measured after 48 hrs by SRB assay; assay type: functional, cell-based; details: for IC50: NCI-H522, 48 h; for TGI: NCI-H522, time 48 hrs
# [7] = system: COLO 205; experiment: Antiproliferative activity against human COLO 205 cells measured after 48 hrs by SRB assay; assay type: functional, cell-based; details: for IC50: COLO 205, 48 h; for TGI: COLO 205, time 48 hrs
# [8] = system: KM12; experiment: Antiproliferative activity against human KM12 cells measured after 48 hrs by SRB assay; assay type: functional, cell-based; details: for IC50: KM12, 48 h; for TGI: KM12, time 48 hrs
# [9] = system: U-251; experiment: Antiproliferative activity against human U-251 cells measured after 48 hrs by SRB assay; assay type: functional, cell-based; details: for IC50: U-251, 48 h; for TGI: U-251, time 48 hrs
# [10] = system: M14; experiment: Antiproliferative activity against human M14 cells measured after 48 hrs by SRB assay; assay type: functional, cell-based; details: for IC50: M14, 48 h; for TGI: M14, time 48 hrs
# [11] = system: MDA-MB-435; experiment: Antiproliferative activity against human MDA-MB-435 cells measured after 48 hrs by SRB assay; assay type: functional, cell-based; details: for IC50: MDA-MB-435, 48 h; for TGI: MDA-MB-435, time 48 hrs
# [12] = system: IGROV-1; experiment: Antiproliferative activity against human IGROV-1 cells measured after 48 hrs by SRB assay; assay type: functional, cell-based; details: for IC50: IGROV-1, 48 h; for TGI: IGROV-1, time 48 hrs
# [13] = system: OVCAR-3; experiment: Antiproliferative activity against human OVCAR-3 cells measured after 48 hrs by SRB assay; assay type: functional, cell-based; details: for IC50: OVCAR-3, 48 h; for TGI: OVCAR-3, time 48 hrs
# [14] = system: OVCAR-4; experiment: Antiproliferative activity against human OVCAR-4 cells measured after 48 hrs by SRB assay; assay type: functional, cell-based; details: for IC50: OVCAR-4, 48 h; for TGI: OVCAR-4, time 48 hrs
# [15] = system: NCI/ADR-RES; experiment: Antiproliferative activity against human NCI-ADR-RES cells measured after 48 hrs by SRB assay; assay type: functional, cell-based; details: for IC50: 48 h; for TGI: time 48 hrs
# [16] = system: 786-0; experiment: Antiproliferative activity against human 786-0 cells measured after 48 hrs by SRB assay; assay type: functional, cell-based; details: for IC50: 786-0, 48 h; for TGI: 786-0, time 48 hrs
# [17] = system: A498; experiment: Antiproliferative activity against human A498 cells measured after 48 hrs by SRB assay; assay type: functional, cell-based; details: for IC50: A498, 48 h; for TGI: A498, time 48 hrs
# [18] = system: CAKI-1; experiment: Antiproliferative activity against human CAKI-1 cells measured after 48 hrs by SRB assay; assay type: functional, cell-based; details: for IC50: CAKI-1, 48 h; for TGI: CAKI-1, time 48 hrs
# [19] = system: PC-3; experiment: Antiproliferative activity against human PC-3 cells measured after 48 hrs by SRB assay; assay type: functional, cell-based; details: for IC50: PC-3, 48 h; for TGI: PC-3, time 48 hrs
# [20] = system: MCF7; experiment: Antiproliferative activity against human MCF7 cells measured after 48 hrs by SRB assay; assay type: functional, cell-based; details: for IC50: MCF7, 48 h; for TGI: MCF7, time 48 hrs
# [21] = system: MDA-MB-231; experiment: Antiproliferative activity against human MDA-MB-231 cells measured after 48 hrs by SRB assay; assay type: functional, cell-based; details: for IC50: MDA-MB-231, 48 h; for TGI: MDA-MB-231, time 48 hrs
# [22] = system: Hs-578T; experiment: Antiproliferative activity against human Hs-578T cells measured after 48 hrs by SRB assay; assay type: functional, cell-based; details: for IC50: 48 h; for TGI: time 48 hrs
# [23] = system: T47D; experiment: Antiproliferative activity against human T47D cells measured after 48 hrs by SRB assay; assay type: functional, cell-based; details: for IC50: 48 h; for TGI: time 48 hrs
# [24] = system: HepG2; experiment: Antiproliferative activity against human HepG2 cells measured by MTT assay; assay type: functional, cell-based
# [25] = system: Hep 3B2; experiment: Antiproliferative activity against human Hep3B cells measured by MTT assay; assay type: functional, cell-based
# [26] = system: RPMI-8226; experiment: Induction of apoptosis in human RPMI-8226 cells assessed as fold increase in caspase-3/7 activity at 0.73 uM; assay type: functional
# [27] = system: RPMI-8226; experiment: Induction of apoptosis in human RPMI-8226 cells assessed as fold increase in caspase-3/7 activity at 6.12 uM; assay type: functional
# [28] = system: RPMI-8226; experiment: Induction of necrosis in human RPMI-8226 cells assessed as LDH release at 6.12 uM; assay type: functional
smiles,measurement,setting,value
COc1cccc(-c2nn(-c3ccccc3)cc2-c2ccnc(NCCCNC(=O)Nc3ccc(F)cc3)c2)c1,IC50,[1],8.53 µM
same,TGI,[1],31.5 µM
same,IC50,[2],5.96 µM
same,TGI,[2],24.6 µM
same,IC50,[3],6.25 µM
same,TGI,[3],31.1 µM
same,IC50,[4],10.8 µM
same,TGI,[4],> 37 µM
same,IC50,[5],6.54 µM
same,TGI,[5],17.1 µM
same,IC50,[6],5.07 µM
same,TGI,[6],12 µM
same,IC50,[7],8.17 µM
same,TGI,[7],29.3 µM
same,IC50,[8],10.5 µM
same,TGI,[8],> 37 µM
same,IC50,[9],9.84 µM
same,TGI,[9],> 37 µM
same,IC50,[10],6.71 µM
same,TGI,[10],19 µM
same,IC50,[11],5.61 µM
same,TGI,[11],12.8 µM
same,IC50,[12],9.34 µM
same,TGI,[12],> 37 µM
same,IC50,[13],6.18 µM
same,TGI,[13],> 37 µM
same,IC50,[14],10.5 µM
same,TGI,[14],> 37 µM
same,IC50,[15],7.29 µM
same,TGI,[15],25.4 µM
same,IC50,[16],9.34 µM
same,TGI,[16],> 37 µM
same,IC50,[17],7.37 µM
same,TGI,[17],31.4 µM
same,IC50,[18],8.63 µM
same,TGI,[18],> 37 µM
same,IC50,[19],6.23 µM
same,TGI,[19],> 37 µM
same,IC50,[20],7.17 µM
same,TGI,[20],18 µM
same,IC50,[21],7.84 µM
same,TGI,[21],23 µM
same,IC50,[22],6.24 µM
same,TGI,[22],17.9 µM
same,IC50,[23],7.95 µM
same,TGI,[23],> 37 µM
O=C(Nc1ccc(Cl)c(C(F)(F)F)c1)N1CCN(c2cc(-c3cn(-c4ccccc4)nc3-c3cccc(O)c3)ccn2)CC1,IC50,[1],1.59 µM
same,TGI,[1],9.71 µM
same,IC50,[2],1.21 µM
same,TGI,[2],11.8 µM
same,IC50,[3],2.59 µM
same,TGI,[3],15.9 µM
same,IC50,[4],3.22 µM
same,TGI,[4],15.8 µM
same,IC50,[5],2.47 µM
same,TGI,[5],> 22 µM
same,IC50,[6],2.77 µM
same,TGI,[6],9.26 µM
same,IC50,[7],3.01 µM
same,TGI,[7],9.39 µM
same,IC50,[8],3.34 µM
same,TGI,[8],15.2 µM
same,IC50,[9],4.23 µM
same,TGI,[9],> 22 µM
same,IC50,[10],3.03 µM
same,TGI,[10],12.5 µM
same,IC50,[11],2.29 µM
same,TGI,[11],6.33 µM
same,IC50,[12],5.11 µM
same,TGI,[12],> 22 µM
same,IC50,[13],1.76 µM
same,TGI,[13],11.5 µM
same,IC50,[14],2.02 µM
same,TGI,[14],> 22 µM
same,IC50,[15],2.91 µM
same,TGI,[15],11.9 µM
same,IC50,[16],4.02 µM
same,TGI,[16],> 22 µM
same,IC50,[17],4.72 µM
same,TGI,[17],21 µM
same,IC50,[18],4.18 µM
same,TGI,[18],19.4 µM
same,IC50,[19],0.97 µM
same,TGI,[19],17 µM
same,IC50,[20],1.8 µM
same,TGI,[20],10.1 µM
same,IC50,[21],3.07 µM
same,TGI,[21],7.57 µM
same,IC50,[22],3.39 µM
same,TGI,[22],15.8 µM
same,IC50,[23],1.13 µM
same,TGI,[23],14.8 µM
O=C1c2ccccc2-c2n[nH]c3cccc1c23,IC50,[1],16 µM
same,TGI,[1],> 100 µM
same,IC50,[2],18.8 µM
same,TGI,[2],> 100 µM
same,IC50,[3],37.6 µM
same,TGI,[3],> 100 µM
same,IC50,[4],22.9 µM
same,TGI,[4],> 100 µM
same,IC50,[5],9.86 µM
same,TGI,[5],> 100 µM
same,IC50,[6],12.2 µM
same,TGI,[6],50.4 µM
same,IC50,[7],19.5 µM
same,TGI,[7],> 100 µM
same,IC50,[8],2.62 µM
same,TGI,[8],72.1 µM
same,IC50,[9],23.1 µM
same,TGI,[9],> 100 µM
same,IC50,[10],> 100 µM
same,TGI,[10],> 100 µM
same,IC50,[11],12.8 µM
same,TGI,[11],> 100 µM
same,IC50,[12],11.3 µM
same,TGI,[12],> 100 µM
same,IC50,[13],15.3 µM
same,TGI,[13],92 µM
same,IC50,[14],31.9 µM
same,TGI,[14],> 100 µM
same,IC50,[15],22.6 µM
same,TGI,[15],59.2 µM
same,IC50,[16],27.1 µM
same,TGI,[16],> 100 µM
same,IC50,[17],7.03 µM
same,TGI,[17],35.4 µM
same,IC50,[18],3.56 µM
same,TGI,[18],18.2 µM
same,IC50,[19],23.3 µM
same,TGI,[19],> 100 µM
same,IC50,[20],49 µM
same,TGI,[20],> 100 µM
same,IC50,[21],65.3 µM
same,TGI,[21],> 100 µM
same,IC50,[22],55.1 µM
same,TGI,[22],> 100 µM
same,IC50,[23],> 100 µM
same,TGI,[23],> 100 µM
O=C(NCCCNc1cc(-c2cn(-c3ccccc3)nc2-c2cccc(O)c2)ccn1)Nc1cccc(C(F)(F)F)c1,IC50,[1],1.71 µM
same,TGI,[1],> 33.3 µM
same,IC50,[2],0.73 µM
same,TGI,[2],6.12 µM
same,IC50,[3],1.25 µM
same,TGI,[3],6.01 µM
same,IC50,[4],4.88 µM
same,TGI,[4],11.5 µM
same,IC50,[5],3.48 µM
same,TGI,[5],8.89 µM
same,IC50,[6],5.12 µM
same,TGI,[6],11 µM
same,IC50,[7],2.97 µM
same,TGI,[7],8.72 µM
same,IC50,[8],2.63 µM
same,TGI,[8],7.39 µM
same,IC50,[9],2.57 µM
same,TGI,[9],7.45 µM
same,IC50,[10],2.18 µM
same,TGI,[10],6.98 µM
same,IC50,[11],3.41 µM
same,TGI,[11],7.57 µM
same,IC50,[12],2.83 µM
same,TGI,[12],7.98 µM
same,IC50,[13],1.87 µM
same,TGI,[13],9.35 µM
same,IC50,[14],2.13 µM
same,TGI,[14],7.75 µM
same,IC50,[15],4.9 µM
same,TGI,[15],12.8 µM
same,IC50,[16],1.07 µM
same,TGI,[16],3.71 µM
same,IC50,[17],3.17 µM
same,TGI,[17],7.18 µM
same,IC50,[18],1.9 µM
same,TGI,[18],12.3 µM
same,IC50,[19],1.79 µM
same,TGI,[19],11.2 µM
same,IC50,[20],2.73 µM
same,TGI,[20],9.39 µM
same,IC50,[21],2.85 µM
same,TGI,[21],7.76 µM
same,IC50,[22],1.34 µM
same,TGI,[22],7.74 µM
same,IC50,[23],3.42 µM
same,TGI,[23],16.7 µM
same,IC50,[24],6.42 µM
same,IC50,[25],4.9 µM
same,fold change (FC),[26],1.96
same,fold change (FC),[27],2.83
same,Activity,[28],34.5%

# Source: ChEMBL document CHEMBL5113453, “Design, synthesis, and biological evaluation of a new series of pyrazole derivatives: Discovery of potent and selective JNK3 kinase inhibitors” (Bioorg Med Chem, 2022)
